Measured values reported in US20260001883A1, “5H-PYRROLO[2,3-D]PYRIMIDIN-6(7H)-ONE AND CRYSTAL OF SALT THEREOF” (priority 2022, published 2026).
Where a name gives a salt, the structure may show the parent alone.

Tests used:
Type in all cases: physicochemical
[1] = Solid state stability test (preservation stability, 70° C./75% RH, 2 weeks); settings: for Appearance change / Total amount of analogous substances (%) 70° C./75% RH (closed system) / Total amount of analogous substances (%) 70° C./75% RH (open system) / amount of analogous substances after preservation (in words) / Powder X-ray diffraction pattern (change after preservation): after 2 weeks at 70° C./75% RH; for Total amount of analogous substances (%) 70° C./75% RH (closed system) / Total amount of analogous substances (%) 70° C./75% RH (open system) / Total amount of analogous substances (%) Initial value: HPLC; for Total amount of analogous substances (%) Initial value: before preservation, UV 220 nm
Procedure: The preservation stability of each of the type I crystal, type II crystal, and type III crystal of the free base of Compound (I), which were produced according to the methods described in Examples 1, 2 and 3 above, respectively, was tested under the following conditions. • Preservation conditions: 70° C./75% RH (open system and closed system) • Measuring point: 2 weeks • Preserved amount: about 50 mg • Preservation container: brown glass bottle
The powder X-ray diffraction of the sample after preservation was measured according to the aforementioned method. A change in the amount of analogous substances (the amount of substances detected other than Compound (I)) was measured by weighing out about 1 mg of the sample, dissolving it in about 5 mL of a water/acetonitrile mixed solution (1:1), accurately measuring 5 μL of this solution, and analyzing it by HPLC using the following method. • Column: InertSustain C18, 4.6×150 mm, 3 μm • Column temperature: 40° C. • Column flow rate: 1.0 mL/min • Mobile phase: A—10 mM phosphate buffer (pH 5.5)/acetonitrile (9:1); B—acetonitrile • Detection UV: 220 nm • Gradient: […]
(§1) The crystal of the hydrochloride of Compound (I), the crystal of the maleate of Compound (I), the crystal of ½ malate of Compound (I), and the crystal of the acetate of Compound (I),which were produced according to the methods described in Example 4, Example 5, Comparative Example 1, and Comparative Example 2, were tested in terms of preservation stability under the conditions of Test Example 1.

[2] = Dynamic moisture adsorption/desorption test; settings: 25° C., humidity 5% RH to 95% RH and back to 5% RH
Procedure: For the test, a VTI-SA+ (TA Instruments) was used. About 10 mg of each of a free base type I crystal, a free base type II crystal, and a […] was weighed, and was placed in a pan. While confirming that the weight fluctuation was within 0.0100% in 5 minutes, the temperature was raised up to 60° C. at 1 degree per minute. If the weight fluctuated, the temperature was maintained for a maximum of 5 hours before proceeding to the next step. Thereafter, the temperature was lowered to 25° C., and the humidity was raised from 5% RH to 95% RH, and was then lowered to 5% RH. At that time, the humidity was changed by 5% RH while confirming that the weight fluctuation was within 0.00100% in 5 minutes. If the weight fluctuated, the humidity was maintained for a maximum of 2 hours before proceeding to the next step.
as §1, with “2.” for “1.”

[3] = Heat stability test (powder X-ray diffraction under heating to 210° C.); settings: heating from 25° C. to 210° C.
Procedure: Using the free base type I crystal, the free base type II crystal, and the free base type III crystal, which were produced according to the methods described in Examples 1, 2 and 3 above, a heat stability test was carried out.
Powder X-ray diffraction measurement was carried out at 25° C., and the temperature was raised to 50° C. over 30 minutes, after which powder X-ray diffraction measurement was carried out. Thereafter, the temperature was further raised to 210° C. at 10° C./10 minutes, and powder X-ray diffraction measurement was then carried out. After that, the temperature was lowered to 25° C. over 30 minutes, and powder X-ray diffraction measurement was then carried out.

[4] = listed as crystal of the acetate of Compound (I)
[5] = listed as crystal of the hydrochloride of Compound (I)
[6] = listed as crystal of the maleate of Compound (I)
[7] = listed as crystal of the ½ malate of Compound (I)
[8] = listed as free base type III crystal
[9] = listed as free base type II crystal

Appearance change [1]	Total amount of analogous substances (%) 70° C./75% RH (closed system) [1]	Total amount of analogous substances (%) 70° C./75% RH (open system) [1]	Total amount of analogous substances (%) Initial value [1]	Powder X-ray diffraction pattern (change after preservation) [1]	Structure (SMILES)	other results
No significant	0.7%	0.8%	0.5%	No significant	CC(C)(C)NCCNc1ccc(-c2nnc(C(F)(F)F)o2)nc1C1CCN(c2ncnc3c2C(C)(C)C(=O)N3)CC1 [Frcc body type III crystal, 4-(4-(3-((2-(tert-butylamino)ethyl)amino)-6-(5-(trifluoromethyl)-1,3,4-oxadiazol-2-yl)pyridin-2-yl)piperidin-1-yl)-5,5-dimethyl-5H-pyrrolo[2,3-d]pyrimidin-6(7H)-one]	Powder X-ray diffraction pattern (change after preservation) ([1]; listed as type III crystal): no change was observed; change of crystal form under heating (powder X-ray diffraction) [3, 8]: new peaks appeared; hygroscopicity (moisture adsorption/desorption isotherm) [2]: excellent low hygroscopicity; hygroscopicity (moisture adsorption/desorption isotherm) [2, 8]: low hygroscopicity
No significant	0.5%	0.5%	0.6%	No significant	CC(C)(C)NCCNc1ccc(-c2nnc(C(F)(F)F)o2)nc1C1CCN(c2ncnc3c2C(C)(C)C(=O)N3)CC1 [Free body type I crystal, 4-(4-(3-((2-(tert-butylamino)ethyl)amino)-6-(5-(trifluoromethyl)-1,3,4-oxadiazol-2-yl)pyridin-2-yl)piperidin-1-yl)-5,5-dimethyl-5H-pyrrolo[2,3-d]pyrimidin-6(7H)-one]	Powder X-ray diffraction pattern (change after preservation) ([1]; listed as type I crystal): no change was observed; change of crystal form under heating (powder X-ray diffraction) ([3]; listed as free base type 1 crystal): no changes were observed in the crystal form; hygroscopicity (moisture adsorption/desorption isotherm) [2]: excellent low hygroscopicity; hygroscopicity (moisture adsorption/desorption isotherm) ([2]; listed as free base type I crystal): low hygroscopicity
No significant	0.5%	0.6%	0.5%	No significant	CC(C)(C)NCCNc1ccc(-c2nnc(C(F)(F)F)o2)nc1C1CCN(c2ncnc3c2C(C)(C)C(=O)N3)CC1 [Free body type II crystal, 4-(4-(3-((2-(tert-butylamino)ethyl)amino)-6-(5-(trifluoromethyl)-1,3,4-oxadiazol-2-yl)pyridin-2-yl)piperidin-1-yl)-5,5-dimethyl-5H-pyrrolo[2,3-d]pyrimidin-6(7H)-one]	Powder X-ray diffraction pattern (change after preservation) ([1]; listed as type II crystal): no change was observed; change of crystal form under heating (powder X-ray diffraction) [3, 9]: new peaks appeared; hygroscopicity (moisture adsorption/desorption isotherm) [2, 9]: low hygroscopicity

The next lines start with the compound.

Structure (SMILES)	Appearance change [1]	Total amount of analogous substances (%) 70° C./75% RH (closed system) [1]	Total amount of analogous substances (%) 70° C./75% RH (open system) [1]	Total amount of analogous substances (%) Initial value [1]	Powder X-ray diffraction pattern (change after preservation) [1]	other results
CC(C)(C)NCCNc1ccc(-c2nnc(C(F)(F)F)o2)nc1C1CCN(c2ncnc3c2C(C)(C)C(=O)N3)CC1 [Crystal of acetate, 4-(4-(3-((2-(tert-butylamino)ethyl)amino)-6-(5-(trifluoromethyl)-1,3,4-oxadiazol-2-yl)pyridin-2-yl)piperidin-1-yl)-5,5-dimethyl-5H-pyrrolo[2,3-d]pyrimidin-6(7H)-one]	No significant	0.3%	1.1%	0.3%	–	Appearance change [1, 4]: no change in appearance; amount of analogous substances after preservation (in words) [1, 4]: large amounts of analogous substances
CC(C)(C)NCCNc1ccc(-c2nnc(C(F)(F)F)o2)nc1C1CCN(c2ncnc3c2C(C)(C)C(=O)N3)CC1 [Crystal of hydrochloride, 4-(4-(3-((2-(tert-butylamino)ethyl)amino)-6-(5-(trifluoromethyl)-1,3,4-oxadiazol-2-yl)pyridin-2-yl)piperidin-1-yl)-5,5-dimethyl-5H-pyrrolo[2,3-d]pyrimidin-6(7H)-one]	No significant	0.2%	0.2%	0.2%	No significant	Appearance change [1, 5]: no change was observed in appearance; Powder X-ray diffraction pattern (change after preservation) [1, 5]: no changes; amount of analogous substances after preservation (in words) [1, 5]: only small amounts of analogous substances; hygroscopicity (moisture adsorption/desorption isotherm) ([2]; listed as crystal of the hydrochloride): lower hygroscopicity than the crystal of the ½ malate
CC(C)(C)NCCNc1ccc(-c2nnc(C(F)(F)F)o2)nc1C1CCN(c2ncnc3c2C(C)(C)C(=O)N3)CC1 [Crystal of maleate, 4-(4-(3-((2-(tert-butylamino)ethyl)amino)-6-(5-(trifluoromethyl)-1,3,4-oxadiazol-2-yl)pyridin-2-yl)piperidin-1-yl)-5,5-dimethyl-5H-pyrrolo[2,3-d]pyrimidin-6(7H)-one]	No significant	0.1%	0.1%	0.1%	No significant	Appearance change [1, 6]: no change was observed in appearance; Powder X-ray diffraction pattern (change after preservation) [1, 6]: no changes; amount of analogous substances after preservation (in words) [1, 6]: only small amounts of analogous substances; hygroscopicity (moisture adsorption/desorption isotherm) ([2]; listed as crystal of the maleate): low hygroscopicity
CC(C)(C)NCCNc1ccc(-c2nnc(C(F)(F)F)o2)nc1C1CCN(c2ncnc3c2C(C)(C)C(=O)N3)CC1 [Crystal of ½ malate, 4-(4-(3-((2-(tert-butylamino)ethyl)amino)-6-(5-(trifluoromethyl)-1,3,4-oxadiazol-2-yl)pyridin-2-yl)piperidin-1-yl)-5,5-dimethyl-5H-pyrrolo[2,3-d]pyrimidin-6(7H)-one]	No significant	5.2%	64.0%	0.4%	–	Appearance change [1, 7]: no change in appearance; amount of analogous substances after preservation (in words) [1, 7]: large amounts of analogous substances
